Columns and labels:
Balb/c mice [1] = assay: In-vivo bioluminescent imaging of LNP compositions (Example 6); conditions: for Bioluminescence (IV) Liver / Bioluminescence (IV) Lung / Bioluminescence (IV) Spleen / Bioluminescence (IV) Whole Body: 4-6 hours post-dose; for Spleen: Liver Ratio: intravenous
Balb/c mice [2] = assay: EPO levels in plasma, EPO MSD kit (Example 6); format: in vivo; conditions: mRNA dose 5 μg FLUC + 5 μg EPO, intravenous
[3] = LNP size and polydispersity, Zetasizer Ultra; format: physicochemical
Protocol: (§1) For each LNP composition, the lipid mix and mRNA solution were mixed at a 1:3 ratio by volume, respectively, on a NanoAssemblr Ignite (Precision Nanosystems) at a total flow rate of 9 mL/min. The resulting compositions were then loaded into Slide-A-Lyzer G2 dialysis cassettes (10 k MWCO) and dialyzed in 200 times sample volume of 1×PBS for 2 hours at room temperature with gentle stirring. The PBS was refreshed, and the compositions were further dialyzed for at least 14 hours at 4° C. with gentle stirring. The dialyzed compositions were then collected and concentrated by centrifugation at 3000×g using Amicon Ultra centrifugation filters (100 k MWCO). The concentrated particles were characterized for size, polydispersity, and particle concentration using Zetasizer Ultra (Malvern Panalytical) and for mRNA encapsulation efficiency using Quant-iT RiboGreen RNA Assay Kit (ThermoFisher Scientific).

[4] = mRNA encapsulation efficiency, Quant-iT RiboGreen RNA Assay; format: physicochemical
Protocol: as §1

[5] = Apparent LNP pKa, TNS assay; format: physicochemical; conditions: LNP with FLUC/EPO 1:1 mRNA
Protocol: For pKa measurement, a […] assay was conducted according to those described in Sabnis et al., Molecular Therapy, 26(6):1509-19), which is incorporated herein by reference in its entirety. Briefly, 20 buffers (10 mM sodium phosphate, 10 mM sodium borate, 10 mM sodium citrate, and 150 mM sodium chloride, in distilled Water) of unique pH values ranging from 3.0-12.0 were prepared using 1M sodium hydroxide and 1M hydrochloric acid. 3.25 μL of a LNP composition (0.04 mg/mL mRNA, in PBS) was incubated with 2 μL of TNS reagent (0.3 mM, in DMSO) and 90 μL of buffer for each pH value (described above) in a 96-well black-walled plate. Each pH condition was performed in triplicate wells. The TNS fluorescence was measured using a Biotek Cytation Plate reader at excitation/emission wavelengths of 321/445 nm. The fluorescence values were then plotted and fit using a 4-parameter sigmoid curve. From the fit, the pH value yielding the half-maximal fluorescence was calculated and reported as the apparent LNP pKa value.

[6] = mRNA dose 5 μg FLUC (CRE/FLUC 1:1 LNP)

| PDI ([3]; LNP with CRE/FLUC 1:1 mRNA) | Size (nm) ([3]; LNP with CRE/FLUC 1:1 mRNA) | % EE ([4]; LNP with CRE/FLUC 1:1 mRNA) | SMILES | Bioluminescence (IV) Liver (Balb/c mice [1]; mRNA dose 5 μg FLUC + 5 μg EPO) | Bioluminescence (IV) Lung (Balb/c mice [1]; mRNA dose 5 μg FLUC + 5 μg EPO) | Bioluminescence (IV) Spleen (Balb/c mice [1]; mRNA dose 5 μg FLUC + 5 μg EPO) | Bioluminescence (IV) Whole Body (Balb/c mice [1]; mRNA dose 5 μg FLUC + 5 μg EPO) | Spleen: Liver Ratio (Balb/c mice [1]; mRNA dose 5 μg FLUC + 5 μg EPO) | hEPO (Balb/c mice [2]) | PDI ([3]; LNP with FLUC/EPO 1:1 mRNA) | Size (nm) ([3]; LNP with FLUC/EPO 1:1 mRNA) | % EE ([4]; LNP with FLUC/EPO 1:1 mRNA) | Bioluminescence (IV) Liver (Balb/c mice [1]; [6]) | Bioluminescence (IV) Lung (Balb/c mice [1]; [6]) | Bioluminescence (IV) Spleen (Balb/c mice [1]; [6]) | Bioluminescence (IV) Whole Body (Balb/c mice [1]; [6]) | Spleen: Liver Ratio (Balb/c mice [1]; [6]) | further results |
| --- | --- | --- | --- | --- | --- | --- | --- | --- | --- | --- | --- | --- | --- | --- | --- | --- | --- | --- |
|  |  |  | CCCCCCC(CCCCCC)CCCOC(=O)CCCCCCCN(CCCCCCCC(=O)OCCCC(CCCCCC)CCCCCC)CCCCN(C)C [Compound 2130, bis(4-hexyldecyl) 8,8′-((4-(dimethylamino)butyl)azanediyl) dioctanoate] | 7.0E + 04 | 1.4E + 05 | 3.0E + 03 | 1.2E + 04 | 0.045 | 1.5E + 02 | 0.13 | 68.7 nm | 98.5% |  |  |  |  |  |  |
| 0.11 | 92.9 nm | 98.3% | CCCCCCC(CCCCCC)CCCOC(=O)CCCCCN(CCCCCC(=O)OCCCC(CCCCCC)CCCCCC)C(=O)CCCN(C)C [Compound 2134, bis(4-hexyldecyl) 6,6′-((4-(dimethylamino)butanoyl)azanediyl) dihexanoate] |  |  |  |  |  |  |  |  |  | 7.5E + 04 | 1.4E + 03 | 4.3E + 03 | 5.4E + 03 | 0.063 | PDI ([3]; LNP with EGFP mRNA): 0.20; Size (nm) ([3]; LNP with EGFP mRNA): 107.1 nm; % EE ([4]; LNP with EGFP mRNA): 98.3% |
| 0.35 | 112.7 nm | 97% | CCCCCC(CCCCC)CCCOC(=O)CCCCCCCN(CCCCCCCC(=O)OCCCC(CCCCC)CCCCC)CCC(O)CN(C)C (stereo not drawn) [Compound 2138, bis(4-pentylnonyl) 8,8′-((4-(dimethylamino)-3-hydroxybutyl)azanediyl) dioctanoate] |  |  |  |  |  |  |  |  |  | 1.7E + 05 | 1.2E + 03 | 2.8E + 04 | 3.7E + 03 | 0.236 |  |
|  |  |  | CCCCCCC(CCCCCC)CCCOC(=O)CCCCCCCN(CCCCCCCC(=O)OCCCC(CCCCCC)CCCCCC)CCC(O)CN(C)C (stereo not drawn) [Compound 2139, bis(4-hexyldecyl) 8.8′-((4-(dimethylamino)-3-hydroxybutyl)azanediyl) dioctanoate] | 1.7E + 05 | 2.2E + 05 | 1.0E + 05 | 4.1E + 04 | 0.583 | 2.0E + 02 | 0.18 | 88.6 nm | 98.3% |  |  |  |  |  |  |
| 0.16 | 86.9 nm | 96.9% | CCCCCCC(CCCCCC)CCCOC(=O)CCCCCN(CCCCCC(=O)OCCCC(CCCCCC)CCCCCC)CCC(O)CN(C)C (stereo not drawn) [Compound 2140, bis(4-hexyldecyl) 6.6′-((4-(dimethylamino)-3-hydroxybutyl)azanediyl)dihexanoate] |  |  |  |  |  |  |  |  |  | 1.6E + 03 | 5.3E + 03 | 1.2E + 05 | 4.3E + 04 | 76.18 |  |
|  |  |  | CCCCCCC(CCCCCC)CCCOC(=O)CCCCCCCN(CCCCCCCC(=O)OCCCC(CCCCCC)CCCCCC)C(=O)CCN1CCCC1 [Compound 2142, bis(4-hexyldecyl) 8,8′-((3-(pyrrolidin-1-yl)propanoyl)azanediyl) dioctanoate] | 2.4E + 05 | 2.0E + 05 | 5.6E + 05 | 7.8E + 05 | 2.758 | 7.3E + 03 | 0.06 | 69.2 nm | 96.7% |  |  |  |  |  |  |
| 0.11 | 78.6 nm | 97.1% | CCCCCCC(CCCCCC)CCCOC(=O)CCCCCN(CCCCCC(=O)OCCCC(CCCCCC)CCCCCC)C(=O)CCN1CCCC1 [Compound 2143, bis(4-hexyldecyl) 6,6′-((3-(pyrrolidin-1-yl)propanoyl)azanediyl)dihexanoate] |  |  |  |  |  |  |  |  |  | 1.3E + 05 | 6.3E + 03 | 6.5E + 05 | 1.7E + 05 | 5.050 | PDI ([3]; LNP with EGFP mRNA): 0.08; Size (nm) ([3]; LNP with EGFP mRNA): 83.4 nm; % EE ([4]; LNP with EGFP mRNA): 97.3% |
| 0.26 | 78.0 nm | 96.8% | CCCCCC(CCCCC)CCCOC(=O)CCCCCCCN(CCCCCCCC(=O)OCCCC(CCCCC)CCCCC)CCOCCOCCN(C)C [Compound 2144, 4-pentylnonyl 2-methyl-11-(8-oxo-8-((4-pentylnonyl)oxy)octyl)-5,8-dioxa-2,11-diazanonadecan-19-oate] |  |  |  |  |  |  |  |  |  | 7.4E + 04 | 1.2E + 03 | 3.0E + 04 | 7.1E + 03 | 0.401 | PDI ([3]; LNP with EGFP mRNA): 0.29; Size (nm) ([3]; LNP with EGFP mRNA): 73.5 nm; % EE ([4]; LNP with EGFP mRNA): 98.3% |
|  |  |  | CCCCCCC(CCCCCC)CCCOC(=O)CCCCCCCN(CCCCCCCC(=O)OCCCC(CCCCCC)CCCCCC)CCOCCOCCN(C)C [Compound 2145, 4-hexyldecyl 11-(8-((4-hexyldecyl)oxy)-8-oxooctyl)-2-methyl-5,8-dioxa-2,11-diazanonadecan-19-oate] | 1.1E + 05 | 7.2E + 04 | 1.2E + 03 | 4.0E + 03 | 0.012 | 8.4E + 02 | 0.21 | 95.4 nm | 97.6% |  |  |  |  |  |  |
| 0.26 | 81.0 nm | 96.5% | CCCCCCC(CCCCCC)CCCOC(=O)CCCCCN(CCCCCC(=O)OCCCC(CCCCCC)CCCCCC)CCOCCOCCN(C)C [Compound 2146, 4-hexyldecyl 11-(6-((4-hexyldecyl)oxy)-6-oxohexyl)-2-methyl-5,8-dioxa-2,11-diazaheptadecan-17-oate] |  |  |  |  |  |  |  |  |  | 9.7E + 04 | 1.2E + 03 | 4.7E + 04 | 7.4E + 03 | 0.505 |  |
|  |  |  | CCCCCCCCC(CCCCCC)C(=O)OCCCCCCN(CCCCCCOC(=O)C(CCCCCC)CCCCCCCC)C(=O)CCN1CCCC1 (stereo not drawn) [Compound 2215, ((3-(pyrrolidin-1-yl)propanoyl)azanediyl)bis (hexane-6,1-diyl) bis(2-hexyldecanoate)] | 2.2E + 06 | 6.5E + 04 | 6.6E + 05 | 3.2E + 07 | 0.449 |  | 0.1 | 80.18 nm | 96.3% |  |  |  |  |  | pKa (TNS) [5]: 7.12 |
|  |  |  | CCCCCCCCC(CCCCCC)C(=O)OCCCCCCN(CCCCCCOC(=O)C(CCCCCC)CCCCCCCC)CCOCCOCCN(C)C (stereo not drawn) [Compound 2216, 11-(6-((2-hexyldecanoyl)oxy)hexyl)-2-methyl-5,8-dioxa-2,11-diazaheptadecan-17-yl 2-hexyldecanoate] | 3.2E + 05 | 9.0E + 03 | 3.8E + 05 | 1.5E + 06 | 1.539 |  | 0.11 | 88.81 nm | 96.8% |  |  |  |  |  | pKa (TNS) [5]: 7 |
|  |  |  | CCCCCCCCC(CCCCCC)C(=O)OCCCCCCN(CCCCCCOC(=O)C(CCCCCC)CCCCCCCC)CCC(O)CN(C)C (stereo not drawn) [Compound 2225, ((4-(dimethylamino)-3-hydroxybutyl)azanediyl) bis(hexane-6,1-diyl) bis(2-hexyldecanoate)] | 1.8E + 05 | 1.0E + 04 | 2.2E + 05 | 3.5E + 05 | 1.261 |  | 0.07 | 81.88 nm | 97.9% |  |  |  |  |  | pKa (TNS) [5]: 7.25 |
|  |  |  | CCCCCC(CCCCC)CCCNC(=O)CCCCCCCN(CCCCCCCC(=O)NCCCC(CCCCC)CCCCC)C(=O)CCN1CCCC1 [Compound 2241, 8-(N-(8-oxo-8-((4-pentylnonyl)amino)octyl)-3-(pyrrolidin-1-yl)propanamido)-N-(4-pentylnonyl) octanamide] | 3.5E + 03 | 5.4E + 04 | 7.6E + 04 | 3.1E + 04 | 22.241 | 1.6E + 03 | 0.15 | 100.89 nm | 94.7% |  |  |  |  |  |  |

Source: patent US20250049948A1, “NOVEL IONIZABLE LIPIDS AND LIPID NANOPARTICLES AND METHODS OF USING THE SAME” (Sail Biomedicines, Inc., priority 2021, published 2025)
